One data set relates to D. gigas (ATCC 19364). As to the kind of experiment: SRB inhibitory assay: viability after one-hour exposure, MPN technique. It counts as cell-based. On the procedure:
(§1) D. vulgaris (ATCC 29579) and D. gigas (ATCC 19364) were obtained from the American Type Culture Collection and cultivated in 15 mL screwcap tubes with 10 mL of modified Baar's medium (ATCC medium 1249) supplemented with 100 μL each of the oxygen-scavengers 4% sodium sulfide and Oxyrase (Oxyrase Inc., Mansfeld, Ohio). Initial cultures were grown from −85° C. glycerol stocks; all subsequent cultures were grown with a 3% inoculum from the initial culture maintained at 30° C. without shaking. […] SRB were also cultured periodically in the presence of 0.1% ferrous ammonium sulfate, and the presence of these sulfate-reducers was confirmed by the detection of black iron sulfide in the culture tubes. The desulfoviridin assay was also performed after each MPN assay to confirm the presence of D. vulgaris or D. gigas by its red color under UV light due to the release of the chromophore of the pignment desulfoviridin. (Postgate, 1984).
(§2) For determining the viability indices (Romeo, et al., 1988) of SRB, a late-exponential phase culture (O.D600 0.16 to 0.19 which corresponded to an initial cell number of 5–9×10^4 cells/mL) was exposed to various concentrations of antimicrobials for 1 hour at 30° C. One mL of cells was harvested, washed once in fresh modified Baar's medium to remove cellular debris, and resuspended in 1 mL of fresh modified Baar's medium supplemented with 10 μL each of Oxyrase (Oxyrase Inc., Mansfeld, Ohio) and 4% sodium sulphide. Aliquots of 450 μL were dispensed in 500 μL sterile eppendorf tubes and appropriate amounts of antimicrobials added and incubated at 30° C. The effectiveness of treatment was determined by the multiple-tube most-probable-number (MPN) fermentation technique. (Anonymous. Multiple-tube fermentation technique for members of the coliform group, pp. 9–45 to 9–51. In A. E. Greenberg, L. S. Clesceri, and A. D. Eaton (eds.), Standard Methods for the Examination of Water and Wastewater, 18 ed. American Public Health Association, American Water Works Association, and Water Pollution Control Federation, New York (1992)) (hereafter, Greenberg, 1992).
(§3) The MPN test for enumerating SRB was performed in three 12 mL tubes with a 1000 μL inoculum of SRB, three 12 mL tubes with a 500 μL inoculum, and three 12 mL tubes with a 100 μL inoculum. All nine tubes contained a final volume of 10 mL of modified Baar's medium supplemented with 100 μL each of 4% sodium sulfide and Oxyrase (Oxyrase Inc., Mansfeld, Ohio). The tubes were monitored for 72 hours to determine the number of tubes that were positive for growth. Growth was determined by the increase in culture turbidity, and the MPN index/mL was calculated using the Thomas formula. (Greenberg 1992).
(In general: The SRB assay estimates cell density from bound dye.)

In another data set the test system is D. vulgaris (ATCC 29579). Described as above. The class given is cell-based. On the procedure:
as §1, §2, §3

Data set [1] has as its system SRB (D. vulgaris) on SAE 1018 mild steel. In words: Continuous reactor with SAE 1018 mild steel and SRB, electrochemical impedance spectroscopy. From the text:
(§4) A continuous reactor was used to develop biofilms on metal surfaces as previously described (Jayaraman et al., 1997c). Electrochemical impedance spectroscopy (EIS) was used to obtain impedance data in at least duplicate experiments using a Solarton-Schlumberger electrochemical measurement unit (SI 1280, Schlumberger Technical Instruments Division, San Jose, Calif.) interfaced to a Macintosh computer (PowerMac 7100/80, Apple Computers, Cupertino, Calif.) running EISIS electrochemical experimentation software (University of California, Irvine) (THALES, a similar commercial software, can also be used). The open-circuit potential (OCP) was measured as the potential between the metal specimen and the reference electrode (Ag/AgCl), and the polarization resistance was determined as the dc limit of the impedance using the ANALEIS software developed by Mansfeld et al. (ASTM Special Technical Protocol 1154:186 (1992)). Continuous culture corrosion rates were estimated from the experimental polarization resistance Rp based on the Stern-Geary equation Rp=B/Icorr, where B is a parameter depending on the Tafel slopes and icorr is the corrosion current density which can be converted into a corrosion rate using Faraday's law (Mansfeld, F., The polarization resistance technique for measuring corrosion currents, In Fontana, M. G., Staehle, R. W. (ed.), Advances in Corrosion Science and Technology, Plenum Press, New York (1976)).
A 3% (vol/vol) SRB inoculum (culture age 24–48 hours) was added to the reactor after 3 to 5 days of aerobic biofilm development. […] All antimicrobials were simultaneously added to the nutrient feed and the reactor at appropriate concentrations.

The test system of data set [2] is SRB (D. vulgaris) on 304 stainless steel. As to the kind of experiment: Continuous reactor with 304 stainless steel and SRB, electrochemical impedance spectroscopy. The note with it: 100 μg/mL added to P. fragi K biofilm 24 hours before D. vulgaris. As to the method: Batch culture corrosion experiments using SAE 1018 mild steel coupons (2.5 cm diameter, 1.2 mm thick) were performed in triplicates in 250 mL Erlenmeyer flasks at 30° C. without shaking as described previously (Jayaraman et al., 1997a). A continuous reactor (Jayaraman et al., 1997c) was also used to develop biofilms on 304 stainless steel and monitor corrosion using electrochemical impedance spectroscopy (EIS) in a minimum of two independent reactors using a Solarton-Schlumberger electrochemical measurement unit (SI 1280, Schlumberger Technical Instruments Division, San Jose, Calif.) interfaced to a Macintosh computer (PowerMac 7100/80, Apple Computers, Cupertino, Calif.) running EISIS electrochemical experimentation software (University of California, Irvine) (similar commercial software, THALES, can also be used). The open circuit potential (OCP) was measured as the potential between the metal specimen and a Ag/AgCl reference electrode, and the polarization resistance (Rp) was determined as the low-frequency value of the impedance (where the imaginary part of the impedance was zero or negligible). Continuous culture corrosion rates were estimated as the inverse of the polarization resistance (Macdonald, D. D. and M. C. H. McCubre, Applications of impedance spectroscopy, p. 262–267. In J. R. Macdonald (ed.), Impedance spectroscopy: Emphasizing solid materials and systems, John Wiley & Sons, New York (1987); Stem, M., Journal of Electrochemical Society, 105(11):638–647 (1958)).
as §4, with “Continuous culture corrosion rates were estimated from the experimental polarization resistance Rp based on the Stern-Geary equation Rp=B/Icorr, where B is a parameter depending on the Tafel slopes and icorr is the corrosion current density which can be converted into a corrosion rate using Faraday's law (Mansfeld, F., The polarization resistance technique for measuring corrosion currents, In Fontana, M. G., Staehle, R. W. (ed.), Advances in Corrosion Science and Technology, Plenum Press, New York (1976)).” left out

The subject of a further data set is P. fragi K. As to the kind of experiment: Growth of P. fragi K in overnight suspension cultures with antimicrobials. It counts as cell-based. The note with it: 100 μg/mL, overnight suspension culture.
The next data set has as its system Gram-negative bacteria. As to conditions: cited from earlier work.
The next data set has as its system E. coli BK6. As to the kind of experiment: Antimicrobial activity of concentrated culture supernatants in suspension. The note with it: buffer + kanamycin 100 μg/mL. The class given is cell-based. As to the method:
B. subtilis BE1500 containing the plasmid pBE92-based constructs expressing the antimicrobial peptide genes was grown in 25 mL of LB medium to late-exponential phase (O.D600=0.70–1.0) at 37° C. The cells were collected by centrifugation at 10,000×g for 10 mins at 4° C., and the supernatant was concentrated 25-fold using a SpeedVac concentrator (Model 200H, Savant Instruments Inc., Holbrook, N.Y.).
Expression of indolicidin and bactenecin in Bacillus was determined in duplicates by exposing E. coli BK6 in suspension to concentrated culture supernatants. E. coli BK6 was grown to an O.D600 of 0.20–0.25, pelleted at room temperature, and resuspended in different volumes (50 or 100 μL) of the concentrated supernatant. The cell suspension was incubated at 30° C. for 1 hour without aeration, and appropriate dilutions were plated on LB agar plates to determine the antimicrobial activity of the supernatant.

The subject of the next data set is wild-type P. fragi. In words: Live/Dead stain control visualized with CSLM. The class given is cell-based. The note with it: 200 μg ml^−1 added to 12-hour culture, visualized after 48 hours.
Another data set has as its system B. subtilis WB600. As to the kind of experiment: Susceptibility of host strains to purified antimicrobials (plate counts). The class given is cell-based. The note with it: one hour exposure at 30° C.
The test system of a further data set is Staphylococcus aureus. The note with it: 5–25 μg/mL; cited from earlier work.
A further data set concerns Escherichia coli. As to conditions: 5–25 μg/mL; cited from earlier work.
The test system of a further data set is B. subtilis BE1500. In words: Susceptibility of host strains to purified antimicrobials (plate counts). As to conditions: one hour exposure at 30° C. The class given is cell-based. On the procedure: (§5) To determine the susceptibility of the hosts B. subtilis BE1500 and B. polymyxa to the expressed antimicrobials, these strains were grown from a single colony in 25 mL of LB medium with shaking at 37° C. to an O.D600 of 0.40–0.45. One mL aliquots were collected, washed with fresh LB medium and resuspended in 100 μL fresh LB medium in sterile eppendorf tubes. The antimicrobials indolicidin and bactenecin were added (50–100 μg/mL) and the tubes were incubated at 30° C. for one hour without shaking. Appropriate dilutions were spread on LB agar plates and incubated overnight at 37° C. to determine the extent of survival. The results were confirmed by performing two independent experiments.

The test system of the next data set is B. polymyxa 10401. The data set is described as above. The class given is cell-based. As to conditions: one hour exposure at 30° C. As to the method: as §5

Data on three molecules can be found in US7060486B2, “Inhibition of sulfate-reducing-bacteria-mediated degradation using bacteria which secrete antimicrobials” (priority 1998, dated 2006).

Square brackets hold non-standard residues; d marks the D form. Ends that are not written are not given here. Peptide text beside a SMILES is read from it. Orn = NCCC[C@H](N)C(=O)O Some results are limits rather than exact numbers.

Description for wild-type P. fragi: Cells and polysaccharide were stained for 30 min simultaneously in 4 ml of staining solution using the Live/Dead Baclit bacteria viability assay kit protocol (1.125 μl ml^−1 of each stain component, Molecular Probes (Eugene, Oreg.)) and calcofluor (300 μl ml^−1, Sigma (St. Louis, Mo.), Stewart et al. 1995). The live/dead viability kit distinguishes live and dead cells based on membrane integrity; live cells with intact membranes stain green, and dead cells with compromised membranes stain red.
As a control experiment to verify that the Live/Dead stain can be used to quantify populations with live and dead cells, 200 μg ml^−1 of kanamycin was added to a 12-hour wild-type P. fragi culture and visualized with CSLM after 48 hours.

With `CC(C)C[C@@H]1NC(=O)[C@H](CCCN)NC(=O)[C@H](C(C)C)NC(=O)[C@@H]2CCCN2C(=O)[C@@H](Cc2ccccc2)NC(=O)[C@H](CC(C)C)NC(=O)[C@H](CCCN)NC(=O)[C@H](C(C)C)NC(=O)[C@@H]2CCCN2C(=O)[C@@H](Cc2ccccc2)NC1=O` [gramicidin S] (cyclo(V[Orn]L[dF]PV[Orn]L[dF]P)), the reduction of viability is reported as 92–96% in the data set on D. gigas (ATCC 19364) (D. gigas, 1 h, 25 μg/mL) and 93% in the data set with D. vulgaris (ATCC 29579) (D. vulgaris, 1 h, 100 μg/mL). Also, the “concentration with inhibitory effect” value in the data set with D. gigas (ATCC 19364) (this study) and in the data set with D. vulgaris (ATCC 29579) (this study) was 50 to 100 µg/mL in each case. For the same molecule, the results for the “effect on D. vulgaris, in words” value in data set [1] (100 μg/mL added to P. fragi K biofilm 24 hours before D. vulgaris) and in data set [2] were “the onset of D. vulgaris-induced corrosion of mild steel was delayed” and “completely effective in inhibiting the growth of D. vulgaris”, respectively. In addition, in [1] (100 μg/mL added to P. fragi K biofilm before D. vulgaris), the “time after D. vulgaris addition without change / increase in Rp” value is at least 80 h. In addition, the “growth of P. fragi K, in words” value in the data set on P. fragi K is “grew to saturation”. Also, in the data set on Gram-negative bacteria, the “concentration that completely inhibits growth” value was 3 to 12.5 µg/mL.
The term inhibition denotes the share of the control response that was lost under treatment. `NC[C@H]1O[C@H](O[C@H]2[C@H](O)[C@@H](O[C@H]3O[C@H](CO)[C@@H](O)[C@H](N)[C@H]3O)[C@H](N)C[C@@H]2N)[C@H](O)[C@@H](O)[C@@H]1O` [kanamycin]: the inhibition at 100 µg/mL in the data set with E. coli BK6 (Escherichia coli, BK6) is 100%. In addition, the “E. coli BK6 CFU/mL” value with E. coli BK6 is on record as 4 × 10^3 CFU/mL. The “red (dead) share of the sample” value in the data set on wild-type P. fragi is reported as “approximately 75%”.
In the case of ILPWKWPWWWPWRR [Ind-OH], the “fold less effective than the amidated form of indolicidin” value turned out to be 10 fold in the data set on D. gigas (ATCC 19364) (25 μg/mL) and 174 fold with D. vulgaris (ATCC 29579) (25 μg/mL). Also, the “Fold-reduction in cell number” value is reported as 20,000 with B. subtilis WB600 (50 μg/mL); 40,000 with B. subtilis WB600 (100 μg/mL); 6000 with B. subtilis BE1500 (50 μg/mL); 10,000 in the data set with B. subtilis BE1500 (100 μg/mL); 4 with B. polymyxa 10401 (50 μg/mL); 4 in the data set on B. polymyxa 10401 (100 μg/mL). In addition, the inhibition in the data set with Staphylococcus aureus and in the data set on Escherichia coli was 99.9% in each case.
